Tested on: 11-bp DNA: ds(CCAAT CGA CCC)
Test: SURFS force spectrum of drug-bound DNA duplex (dissociation voltage)
Type: binding
Conditions: daunomycin-11-bp DNA vs 12-bp DNA
Experimental: A piezo plate was placed on a piece of rubber. On top of the piezo, a water reservoir was constructed. The sample was mounted on a glass rod for scanning. The bottom of the sample, which contains the immobilized molecular system, makes contact with the water surface prior to ultrasound application. The water level was carefully monitored to be constant during experiment. […] A DNA duplex with 12-basepair (bp) was used to calculate the force resolution. The dissociation voltage was determined to be 0.204 V on the function generator, with ±0.001 V resolution. […] Because the acoustic radiation force is proportional to the ultrasound power, or V^2, the force resolution can be calculated as δF=(2δV/V)*F=(2*0.001/0.204)*45=0.5 pN (1)
In FIG. 4a, the force spectra of 12-bp DNA and daunomycin bound 11-bp DNA are compared. The two dissociation voltages were well distinguished, with the former at 0.204 V and the latter at 0.226 V. However, previous techniques of the prior art cannot distinguish the two forces, which are 45^±2 and 48^±2 pN respectively.

SMILES: COc1cccc2c1C(=O)c1c(O)c3c(c(O)c1C2=O)C[C@@](O)(C(C)=O)C[C@@H]3O[C@H]1C[C@H](N)[C@H](O)[C@H](C)O1 [daunomycin]
- binding strength compared with 12-bp DNA: stronger than 12-bp DNA

From US12085534B2, “Multiplexable super-resolution force spectroscopy using ultrasound methods and magnetic detection” (University of Houston System, priority 2018, dated 2024)
